Data taken from ChEMBL document CHEMBL1153404, “Design and structural analysis of novel pharmacophores for potent and selective peroxisome proliferator-activated receptor gamma agonists” (J Med Chem, 2009).
pEC50: −log10 of the molar value.

What was measured:
[1] = species: Homo sapiens; test: Selectivity of EC50 for human PPARgamma receptor over EC50 for human PPARalpha receptor
[2] = biological target: T1, Peroxisome proliferator-activated receptor gamma (Homo sapiens, UniProt P37231)
T1 sequence (P37231 whole entry): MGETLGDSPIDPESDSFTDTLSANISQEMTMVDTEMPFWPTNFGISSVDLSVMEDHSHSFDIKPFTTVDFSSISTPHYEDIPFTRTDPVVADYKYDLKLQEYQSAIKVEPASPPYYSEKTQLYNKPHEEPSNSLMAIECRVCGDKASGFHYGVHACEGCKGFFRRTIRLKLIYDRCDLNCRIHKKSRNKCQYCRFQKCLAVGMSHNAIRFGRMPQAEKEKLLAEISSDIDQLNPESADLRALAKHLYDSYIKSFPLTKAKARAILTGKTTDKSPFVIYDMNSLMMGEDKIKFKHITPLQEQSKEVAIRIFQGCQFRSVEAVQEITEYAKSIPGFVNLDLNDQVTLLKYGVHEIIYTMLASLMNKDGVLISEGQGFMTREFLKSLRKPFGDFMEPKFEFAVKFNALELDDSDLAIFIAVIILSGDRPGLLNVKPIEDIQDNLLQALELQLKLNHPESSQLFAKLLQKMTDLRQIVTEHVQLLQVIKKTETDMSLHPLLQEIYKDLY
Description: Agonist activity at human PPARgamma receptor by cell based transactivation assay

[3] = biological target: T2, Peroxisome proliferator-activated receptor delta (Homo sapiens, UniProt Q03181); test: Agonist activity at human PPARdelta receptor by cell based transactivation assay
T2 sequence (Q03181 whole entry): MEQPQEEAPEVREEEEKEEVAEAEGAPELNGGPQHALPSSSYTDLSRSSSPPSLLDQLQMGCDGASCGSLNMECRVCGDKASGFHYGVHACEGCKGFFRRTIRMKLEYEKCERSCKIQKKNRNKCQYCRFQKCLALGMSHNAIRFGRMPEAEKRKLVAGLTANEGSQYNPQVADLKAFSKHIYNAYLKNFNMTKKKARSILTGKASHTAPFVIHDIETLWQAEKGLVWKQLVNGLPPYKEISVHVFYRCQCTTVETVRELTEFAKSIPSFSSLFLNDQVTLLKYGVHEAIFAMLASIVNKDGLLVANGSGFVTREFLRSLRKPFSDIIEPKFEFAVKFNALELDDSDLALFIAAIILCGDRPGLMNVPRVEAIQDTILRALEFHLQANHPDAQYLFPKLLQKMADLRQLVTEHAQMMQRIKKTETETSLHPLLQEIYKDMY

[4] = biological target: T3, Peroxisome proliferator-activated receptor alpha (Homo sapiens, UniProt Q07869); test: Agonist activity at human PPARalpha receptor by cell based transactivation assay; type: functional
T3 sequence (Q07869 whole entry): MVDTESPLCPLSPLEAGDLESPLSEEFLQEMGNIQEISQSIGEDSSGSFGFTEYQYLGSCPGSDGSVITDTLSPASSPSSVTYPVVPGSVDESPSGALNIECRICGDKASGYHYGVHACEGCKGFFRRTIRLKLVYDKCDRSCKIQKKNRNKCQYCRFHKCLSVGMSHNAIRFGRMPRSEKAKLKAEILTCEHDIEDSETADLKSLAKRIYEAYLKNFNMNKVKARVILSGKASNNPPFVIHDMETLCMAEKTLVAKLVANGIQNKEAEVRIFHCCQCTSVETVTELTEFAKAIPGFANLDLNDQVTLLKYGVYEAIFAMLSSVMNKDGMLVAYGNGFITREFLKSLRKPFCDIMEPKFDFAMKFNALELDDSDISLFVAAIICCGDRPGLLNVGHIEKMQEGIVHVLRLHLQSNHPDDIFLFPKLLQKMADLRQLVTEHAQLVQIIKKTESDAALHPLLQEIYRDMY

[5] = species: Homo sapiens; test: Selectivity of EC50 for human PPARalpha receptor over EC50 for human PPARdelta receptor
[6] = species: Homo sapiens; test: Selectivity of EC50 for human PPARalpha receptor over EC50 for human PPARgamma receptor

Row | Activity [1] | pEC50 [2] | pEC50 [3] | pEC50 [4] | fold change (FC) [5] | fold change (FC) [6] | Compound | fold change (FC) [1]
1 | 80 | – | – | – | – | – | CN(CCOc1ccc(CC2SC(=O)NC2=O)cc1)c1ccccn1 (stereo not given) | –
2 | – | 5.67 | < 5.00 | < 5.00 | – | – | CCCc1c(OCCCn2ccc3cc(OC(C)(C)C(=O)O)ccc32)ccc2cc(C(=O)c3ccc(F)cc3)ccc12 | –
3 | – | 5.97 | < 5.00 | < 5.00 | – | – | CCCc1c(OCCCn2ccc3cc(OC(C)(C)C(=O)O)ccc32)ccc2cc(C(C)=O)ccc12 | –
4 | – | 6.29 | < 5.00 | 6.89 | – | – | CCCc1c(OCCCn2ccc3cc(OC(C)(C)C(=O)O)ccc32)ccc2cc(C(=O)c3ccc(OC)cc3)ccc12 | –
5 | – | 6.52 | < 5.00 | 5.39 | > 300 | > 300 | CCCc1cc(C(=O)c2ccc(-c3ccccc3)cc2)ccc1OCCCn1ccc2c(OC(C)(C)C(=O)O)cccc21 | 15
6 | – | 7.00 | < 5.00 | < 5.00 | – | – | CCCc1cc(C(=O)c2ccc(-c3ccccc3)cc2)ccc1OCCCN1CCCc2cc(OC(C)(C)C(=O)O)ccc21 | –
7 | – | – | < 5.00 | – | – | – | CCCc1c(OCCCn2ccc3cc(OC(C)(C)C(=O)O)ccc32)ccc2cc(C(=O)c3ccccc3)ccc12 | –
8 | – | 6.05 | < 5.00 | 6.89 | – | – | CCCc1cc(C(=O)c2ccc(F)cc2)ccc1OCCCn1ccc2cc(OC(C)(C)C(=O)O)ccc21 | –
9 | – | < 5.00 | < 5.00 | 7.52 | – | – | CCCc1cc(C(=O)c2ccccc2)ccc1OCCCn1ccc2c(OC(C)(C)C(=O)O)cccc21 | –
10 | – | 5.46 | < 5.00 | 6.70 | – | – | CCCc1c(OCCCn2ccc3cc(OC(C)(C)C(=O)O)ccc32)ccc2c(C(=O)c3ccccc3)cccc12 | –
11 | – | 5.68 | < 5.00 | < 5.00 | – | – | CCCc1c(OCCCn2ccc3cc(OC(C)(C)C(=O)O)ccc32)ccc2cc(C(=O)c3ccncc3)ccc12 | –
12 | – | 6.33 | 5.35 | 7.30 | – | – | CCCc1cc(C(=O)c2ccc(OC)cc2)ccc1OCCCn1ccc2cc(OC(C)(C)C(=O)O)ccc21 | –
13 | – | < 5.00 | < 5.00 | < 5.00 | – | – | CCCc1c(OCCCn2ccc3cc(OC(C)(C)C(=O)O)ccc32)ccc2cc(Cc3ccccc3)ccc12 | –
14 | – | 5.55 | < 5.00 | 7.52 | > 100 | > 100 | CCCc1cc(C(=O)c2ccc3ccccc3c2)ccc1OCCCn1ccc2c(OC(C)(C)C(=O)O)cccc21 | –
15 | – | 6.27 | < 5.00 | 6.62 | – | – | CCCc1c(OCCCN2CCCc3cc(OC(C)(C)C(=O)O)ccc32)ccc2cc(C(=O)c3ccccc3)ccc12 | –

Row | Compound | Activity [1] | pEC50 [2] | pEC50 [3] | pEC50 [4] | fold change (FC) [5] | fold change (FC) [6] | fold change (FC) [1]
16 | CCCc1cc(C(=O)c2ccc(-c3ccccc3)cc2)ccc1OCCCN1CCCc2c(OC(C)(C)C(=O)O)cccc21 | – | 7.30 | < 5.00 | 5.40 | – | – | –
17 | CCCc1cc(C(=O)c2ccc3ccccc3c2)ccc1OCCCn1ccc2cc(OC(C)(C)C(=O)O)ccc21 | – | 6.43 | < 5.00 | 7.52 | – | – | –
18 | CCCc1cc(C(=O)c2ccccc2)ccc1OCCCn1ccc2cc(OC(C)(C)C(=O)O)ccc21 | – | 6.38 | 5.28 | 7.40 | – | – | –
19 | CCCc1c(OCCCN2CCCc3c(OC(C)(C)C(=O)O)cccc32)ccc2cc(C(=O)c3ccccc3)ccc12 | – | 7.00 | < 5.00 | 6.92 | – | – | –
20 | CCCc1c(OCCCn2ccc3cc(OC(C)(C)C(=O)O)ccc32)ccc2cc(C(=O)c3ccoc3)ccc12 | – | 6.37 | < 5.00 | 6.89 | – | – | –
21 | CCCc1cc(C(=O)c2ccc(-c3ccccc3)cc2)ccc1OCCCn1ccc2cc(OC(C)(C)C(=O)O)ccc21 | – | 6.92 | < 5.00 | 5.72 | – | – | 15
